Source: patent US9006221B2, “Method of modulating ship activity” (H. Lee Moffitt Cancer Center and Reserach Institute, Inc., priority 2008, dated 2015)

Assays:
[1] = tested on: priming of allogeneic T cell responses by C57Bl6/J splenocytes; test: One-way mixed leukocyte reaction (MLR), stimulator splenocytes treated in vitro; format: cell-based, mouse; conditions: splenocytes cultured with compound 72 hr, added at 0, 24 and 48 hr
Protocol: Mean proliferation of 100K BALB/C responders as measured by ^3H-Thymidine uptake after exposure to 200K irradiated BL6 stimulators that were treated with the indicated compound, 1×DMSO or 1× EtOH prior to initiation of the mixed leukocyte reaction (MLR). 1×DMSO serves as the allogeneic MLR positive control for all compounds with the exception of HLM85321 for which 1× EtOH is the positive control. [*p<0.05, **p<0.01].
Spleen cells and lymphe node LN cells are normally robust stimulators of allogeneic T cell responses in the one-way mixed leukocyte reaction (MLR) assay, but they are very poor stimulators when obtained from mice with germline or induced SHIP-deficiency. […]
Mixed leukocyte reactions (MLR): Following RBC lysis, irradiated (2000 Rads) BL6 splenocytes (stimulators) at 8×10^5 cells/well were combined with BALB/c splenocytes (responders) at 4×10^5 cells/well in a one-way MLR assay. […] Incorporated [3H]thymidine was quantitated using a Packard TopCount NXT. Specific [3H]thymidine incorporation into genomic DNA was calculated as the average of the mean (±SEM) of sextuplicate wells. […]

[2] = target: T1, SHIP1 (Mus musculus, UniProt Q9ES52); test: Fluorescence polarization (FP) assay of SHIP1 enzymatic activity; format: biochemical; conditions: confirmatory FP assay of screening hits
T1 construct: The asterisk in lanes 1 and 3 indicates the ˜145 kD full-length SHIP protein; His tag (C); made in house; host or cells: E. coli Rosetta-Gami 2 (DE3) pLys
T1 sequence (Q9ES52 1-1191): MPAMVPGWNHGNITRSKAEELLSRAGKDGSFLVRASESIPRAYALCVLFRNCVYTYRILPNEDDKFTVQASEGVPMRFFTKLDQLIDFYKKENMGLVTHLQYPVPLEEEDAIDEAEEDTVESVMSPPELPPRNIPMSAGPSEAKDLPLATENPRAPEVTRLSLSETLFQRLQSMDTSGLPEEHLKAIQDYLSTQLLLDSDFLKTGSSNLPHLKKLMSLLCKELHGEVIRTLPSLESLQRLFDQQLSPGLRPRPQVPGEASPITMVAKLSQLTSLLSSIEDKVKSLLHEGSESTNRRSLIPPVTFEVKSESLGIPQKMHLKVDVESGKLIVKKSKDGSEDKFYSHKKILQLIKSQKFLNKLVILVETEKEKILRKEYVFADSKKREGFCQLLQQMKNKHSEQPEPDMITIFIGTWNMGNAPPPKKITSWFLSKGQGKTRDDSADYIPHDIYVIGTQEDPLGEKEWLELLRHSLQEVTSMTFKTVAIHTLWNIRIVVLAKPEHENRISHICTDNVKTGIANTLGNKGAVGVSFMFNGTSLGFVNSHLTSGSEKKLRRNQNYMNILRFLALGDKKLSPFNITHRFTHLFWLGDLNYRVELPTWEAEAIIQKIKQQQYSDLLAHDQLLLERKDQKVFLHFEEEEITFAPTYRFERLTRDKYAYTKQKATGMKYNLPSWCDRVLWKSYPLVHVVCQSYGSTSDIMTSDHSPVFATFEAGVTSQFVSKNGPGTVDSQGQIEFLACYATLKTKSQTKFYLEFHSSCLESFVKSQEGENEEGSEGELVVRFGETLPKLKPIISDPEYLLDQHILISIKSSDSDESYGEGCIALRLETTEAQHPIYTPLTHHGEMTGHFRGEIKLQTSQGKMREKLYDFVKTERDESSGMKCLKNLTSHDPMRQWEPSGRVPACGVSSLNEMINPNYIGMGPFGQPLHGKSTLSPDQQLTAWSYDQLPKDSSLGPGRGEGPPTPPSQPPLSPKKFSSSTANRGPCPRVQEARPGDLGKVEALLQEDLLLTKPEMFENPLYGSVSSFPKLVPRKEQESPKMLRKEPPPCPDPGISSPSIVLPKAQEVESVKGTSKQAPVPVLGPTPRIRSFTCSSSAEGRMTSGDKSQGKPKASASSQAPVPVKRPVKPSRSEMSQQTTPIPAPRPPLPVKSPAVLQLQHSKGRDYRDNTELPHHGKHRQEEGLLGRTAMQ
From the text: SHIP is detectable in this expression system as a ˜145 kD protein (FIG. 1a, lane 1). Because of an in-frame Histidine (His) tag on the COOH terminus of SHIP, it can then be purified from E. coli lysates by FPLC over a Ni-containing resin. (FIG. 1a, lane 3). Purified SHIP was routinely obtained in sufficient quantities, using this E. coli expression system and FPLC purification, to conduct high-throughput screening (HTS) of chemical libraries for compounds that inhibit SHIP activity. However, prior to screening, a fluorescence polarization (FP) assay that detects SHIP activity in either a 96- or […] format, seen in FIG. 1b, screen was established. SHIP generates PI(3,4)P2 from its PI(3,4,5)P3 substrate. In the FP assay enzymatic generation of PI(3,4)P2 by SHIP reduces polarized fluorescence (mP) because the fluorescent PI(3,4)P2 “probe” is displaced from a detector protein that binds specifically to PI(3,4)P2. The FP assay is highly specific for SHIP activity in these lysates. No significant 5′-inositol phosphatase activity was detected in E. coli lysates harboring an ‘empty’ pet24b expression vector insert when FPLC fractions where SHIP typically elutes with the imidazole step gradient are analyzed in the FP assay (FIG. 1c).
After preparing purified SHIP and establishing the FP assay, two different chemical libraries, comprising a total of ˜2100 different chemical compounds, were screened. Seventeen compounds capable of inhibiting SHIP activity at μM concentrations were identified in this screen. The compounds were verified for SHIP activity inhibition by repeating the FP assay with the compounds obtained from their respective wells in the replicates of the masterplates for these libraries FIGS. 2-6).
A fluorescence polarization (FP) assay to detect and quantify SHIP2 activity has been previously described [Drees B E, et al., Comb Chem High Throughput Screen (2003) 6(4):321-330], but no assay has been described for the detection of SHIP1. A fluorescence polarization (FP) assay was developed to detect the activity of recombinant SHIP1 (see FIGS. 15a and b) and the FP assay was utilized as a rapid screen to detect compounds in chemical libraries that have inhibitory activity against SHIP1. This screen identified 3α-aminocholestane as a potent inhibitor of SHIP1 enzymatic activity (FIG. 15c). […] This high degree of selectivity could be important, since loss of PTEN function promotes malignancy in parenchymal and hematopoietic tissues. [Yuan T L & Cantley L C Oncogene (2008) 27(41):5497-5510; Zhang J, et al., Nature (2006) 441(7092):518-522; Yilmaz O H, et al., Nature (2006) 441(7092):475-482]
Assay of SHIP1 enzymatic activity: A fluorescent polarization (FP) assay that detects the 5′-inositol phosphatase activity of SHIP1 was developed based on a previously established protocol [Drees B E, et al., Comb Chem High Throughput Screen (2003) 6(4):321-330] and was obtained from Echelon Biosciences (Salt Lake City, USA). Modifications of the protocol included the application of SHIP1 in the assay and an increase in the concentration of MgCl2 to […] to maximize the activity of SHIP1 in this assay. Each enzymatic reaction was performed in a 96 well working plate and added in the following order and concentration: Recombinant SHIP1 (0.1 μg) in PBS+20 mM MgCl2, 100 μM of each individual compound from the NCI Diversity Set and then PI(3,4,5)P3 substrate diluted 1:10 in H2O. The enzymatic reaction was incubated for 30 min at room temperature. The detector, reaction mixture and probe were then combined according to the SHIP2 protocol. Malachite Green Phosphatase Assay Kit was obtained from Echelon Biosciences (Salt Lake City, USA). Assays for SHIP2 were performed according to the manufacturer's protocol. The concentration of SHIP1 and SHIP2 per reaction mixture was […]. PTEN was used at the concentration recommended by the manufacturer.

Compound	ability of splenocytes to prime allogeneic T cell responses by BALB/C responders (3H-thymidine uptake) [1]	SHIP inhibitory activity in FP assay [2]
Cc1ccc(C)c(/C(=N/N=C(N)N)C2CC2)c1.Cl [NSC75513, 2-[(E)-[cyclopropyl-(2,5-dimethylphenyl)methylidene]amino]guanidine chloride]	significantly inhibited	–
O=C1CN2CCN(CC2)CC(=O)Nc2ccc(cc2)S(=O)(=O)c2ccc(cc2)NC(=O)CN2CCN(CC2)CC(=O)Nc2ccc(cc2)S(=O)(=O)c2ccc(cc2)N1 [NSC 36806]	–	SHIP inhibitory activity
O=C1OC2(c3ccc(O)cc3Oc3cc(O)ccc32)c2c1c(-c1ccccc1)c(-c1ccccc1)c(-c1ccccc1)c2-c1ccccc1 [NSC 119886]	–	SHIP inhibitory activity
CCOC(=O)c1c(C)c(C)n2c1NC(=O)C2 [NSC 624983]	–	SHIP inhibitory activity
